Measurements reported in patent US20230066268A1, “INDAZOLE DERIVATIVES AND METHODS OF USE THEREOF FOR THE TREATMENT OF HERPES VIRUSES” (Merck Sharp & Dohme LLC, priority 2019, published 2023).
Where two headings read alike, the source gives them in different places.

How the values were obtained:
[1] = target: T1, Human cytomegalovirus DNA polymerase (Human cytomegalovirus, UniProt P08546); experiment: CMV polymerase assay (AlphaLISA); type: biochemical; conditions: polymerase assay of Example 27, HCMV polymerase 0.2 nM
T1 construct: made in house; host or cells: SF21 insect cells (baculovirus vector)
T1 sequence (P08546 whole entry): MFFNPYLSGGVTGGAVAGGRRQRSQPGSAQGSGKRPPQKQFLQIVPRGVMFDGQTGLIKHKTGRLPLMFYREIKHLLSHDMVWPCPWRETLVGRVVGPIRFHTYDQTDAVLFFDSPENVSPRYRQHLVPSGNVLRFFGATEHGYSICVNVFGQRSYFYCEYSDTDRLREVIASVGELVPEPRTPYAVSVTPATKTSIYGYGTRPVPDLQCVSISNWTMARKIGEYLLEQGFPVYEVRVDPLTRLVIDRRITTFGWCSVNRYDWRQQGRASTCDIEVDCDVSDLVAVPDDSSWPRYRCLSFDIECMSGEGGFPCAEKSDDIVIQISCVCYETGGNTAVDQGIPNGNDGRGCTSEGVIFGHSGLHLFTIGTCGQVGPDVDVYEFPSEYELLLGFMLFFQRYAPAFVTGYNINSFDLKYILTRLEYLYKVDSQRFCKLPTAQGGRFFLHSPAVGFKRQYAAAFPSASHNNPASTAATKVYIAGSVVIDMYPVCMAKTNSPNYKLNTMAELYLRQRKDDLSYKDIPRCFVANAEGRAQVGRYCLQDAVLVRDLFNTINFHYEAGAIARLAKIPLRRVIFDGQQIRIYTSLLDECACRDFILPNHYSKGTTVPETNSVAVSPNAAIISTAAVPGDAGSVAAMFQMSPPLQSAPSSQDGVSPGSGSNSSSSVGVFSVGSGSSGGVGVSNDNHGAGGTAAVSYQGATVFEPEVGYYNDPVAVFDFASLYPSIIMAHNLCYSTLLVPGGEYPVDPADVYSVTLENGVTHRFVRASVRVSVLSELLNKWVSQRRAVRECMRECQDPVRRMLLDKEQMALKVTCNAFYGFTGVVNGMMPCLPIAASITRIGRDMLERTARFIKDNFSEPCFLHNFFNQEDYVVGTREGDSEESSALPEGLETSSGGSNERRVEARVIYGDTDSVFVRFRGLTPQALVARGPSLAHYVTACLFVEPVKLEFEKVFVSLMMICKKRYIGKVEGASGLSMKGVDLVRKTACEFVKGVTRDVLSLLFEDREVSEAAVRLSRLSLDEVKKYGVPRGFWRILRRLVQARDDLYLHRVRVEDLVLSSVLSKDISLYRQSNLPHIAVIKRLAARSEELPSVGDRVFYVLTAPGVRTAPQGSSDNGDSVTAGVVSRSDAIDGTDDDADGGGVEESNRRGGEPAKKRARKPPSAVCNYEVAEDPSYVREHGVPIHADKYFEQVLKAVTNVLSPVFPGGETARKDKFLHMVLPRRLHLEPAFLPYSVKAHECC
Description: (§1) CMV and VZV Polymerase Assays
(§2) Human cytomegalovirus and varicella zoster virus DNA polymerases were expressed via baculovirus vector in SF21 cells and purified. Heterodimeric nucleic acid substrate used in the herpesvirus polymerase reactions were generated by annealing a 59-mer template to a 17-mer digoxigenin-labeled primer. Polymerase (HCMV final concentration of 0.2 nM; VZV final concentration of 0.4 nM) was combined with an inhibitor compound or DMSO in assay buffer (10 mM HEPES, pH 7.5, 25 mM KCl, 25 mM NaCl, 5 mM MgCl2, 5% glycerol, 0.67 mg/mL bovine serum albumin, and 1 mM tris(2-carboxyethyl)phosphine)), and this mixture was pre-incubated for 30 minutes at room temperature in 384-well microtiter plates. The polymerization reaction was initiated by the addition of template/primer substrate (final concentration: 1.6 nM) and dNTPs (final concentration: 24 nM dCTP, 24 nMdGTP, 16 nM dATP, 16 nM dTTP, and 0.8 nM biotin-dUTP). After a 60 minute incubation period at 37° C., the reactions were terminated using quench buffer (25 mM HEPES pH 7.5, 100 mM NaCl, 0.25% Tween-20, 12 mM EDTA, and 1 mg/mL bovine serum albumin). Incorporation of biotinylated UTP was detected with 2.5-5 μg/mL anti-DIG AlphaLISA acceptor beads and 5-10 μg/mL streptavidin AlphaLISA donor beads (PerkinElmer). Compound effects were normalized to the window defined by the controls (DMSO only and pre-quenched wells) and were fit using a 4-parameter algorithm to report an IC50.

[2] = target: T2, varicella zoster virus DNA polymerase (Varicella-zoster virus, UniProt P09252); experiment: VZV polymerase assay (AlphaLISA); type: biochemical; conditions: polymerase assay of Example 27, VZV polymerase 0.4 nM
T2 construct: made in house; host or cells: SF21 insect cells (baculovirus vector)
T2 sequence (P09252 whole entry): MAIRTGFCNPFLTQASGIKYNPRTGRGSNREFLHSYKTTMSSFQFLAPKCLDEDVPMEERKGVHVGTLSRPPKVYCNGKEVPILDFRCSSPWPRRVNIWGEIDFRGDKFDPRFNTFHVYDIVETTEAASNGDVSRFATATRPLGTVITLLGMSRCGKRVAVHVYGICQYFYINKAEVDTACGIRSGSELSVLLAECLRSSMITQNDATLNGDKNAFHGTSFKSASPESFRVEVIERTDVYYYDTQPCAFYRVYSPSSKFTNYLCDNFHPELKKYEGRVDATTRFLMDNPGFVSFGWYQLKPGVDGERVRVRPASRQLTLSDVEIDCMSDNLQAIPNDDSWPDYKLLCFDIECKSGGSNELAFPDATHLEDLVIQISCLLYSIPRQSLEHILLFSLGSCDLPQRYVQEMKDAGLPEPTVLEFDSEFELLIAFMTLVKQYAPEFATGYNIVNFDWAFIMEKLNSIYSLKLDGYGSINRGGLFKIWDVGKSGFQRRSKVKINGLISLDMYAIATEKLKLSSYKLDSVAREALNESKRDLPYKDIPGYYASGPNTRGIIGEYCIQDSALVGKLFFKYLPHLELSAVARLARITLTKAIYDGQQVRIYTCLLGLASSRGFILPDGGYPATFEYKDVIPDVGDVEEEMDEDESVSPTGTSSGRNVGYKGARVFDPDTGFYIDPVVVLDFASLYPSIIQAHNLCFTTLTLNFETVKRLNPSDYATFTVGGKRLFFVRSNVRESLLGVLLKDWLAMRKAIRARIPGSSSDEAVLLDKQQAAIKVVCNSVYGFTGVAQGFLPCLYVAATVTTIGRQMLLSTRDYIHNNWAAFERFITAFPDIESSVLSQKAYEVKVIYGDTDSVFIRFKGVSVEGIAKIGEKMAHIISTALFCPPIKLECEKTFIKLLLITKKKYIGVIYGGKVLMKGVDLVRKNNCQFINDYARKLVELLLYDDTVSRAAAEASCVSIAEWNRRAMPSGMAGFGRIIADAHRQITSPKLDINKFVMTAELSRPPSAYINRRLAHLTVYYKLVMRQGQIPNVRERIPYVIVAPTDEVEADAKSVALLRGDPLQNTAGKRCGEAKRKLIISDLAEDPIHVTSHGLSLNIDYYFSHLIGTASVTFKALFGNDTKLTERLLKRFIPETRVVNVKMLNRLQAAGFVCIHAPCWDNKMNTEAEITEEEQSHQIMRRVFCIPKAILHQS
Description: as §1, §2

[3] = tested on: HCMV Strain AD169 in MRC-5 cells; experiment: CMV cell assay; type: cell-based
Description: (§3) MRCS and Vero cells were obtained from ATCC and were maintained at 37° C./5% CO2/90% relative humidity in Minimal Essential Medium with 10% fetal bovine serum, […], 100 units/mL penicillin and 100 ug/mL streptomycin. Assay plates were prepared by dispensing compounds dissolved in DMSO into wells of 384 well collagen-coated plates using an ECHO acoustic dispenser. Each test compound was tested in a 10-point, serial 3-fold dilution. Controls included uninfected cells and infected cells treated only with DMSO. Assays were initiated by mixing selected cells, in suspension, with virus, and dispensing 50 μl/well infected cells to pre-plated compounds. Plates were incubated at 37° C./5% CO2/90% relative humidity for ˜72 hours to permit genomic replication, and infected cells were lysed by the addition of an equal volume of lysis buffer (10 mM Tris-HCl, pH8, 50 mM KCl, 2 mM MgCl2, 0.45% NP-40, 0.45% Tween-20, and 100 μg/mL proteinase K). An aliquot of the lysate was then transferred to a 384-well PCR plate and incubated at 56° C. for 1 hour, and then at 95° C. for 10 minutes. Levels of a viral gene were measured in 10 ul qPCR assays using TaqMan® Gene Expression Master Mix (Applied Biosystems) and an 7900HT Fast Real-Time PCR System with 384-Well Block Module. 7-point, serial 10-fold dilutions of a plasmid standard were run on each plate to generate a standard curve, and genome copies numbers were calculated by plotting experimental Ct onto linear regression of the standard curve. Compound effects on viral genome copy number were normalized to the window defined by the controls. Calculated % effects were fit using a 4-parameter algorithm, and EC50 was reported.
(§4) HCMV: Strain AD169 was assayed in MRC-5 cells and was used at 0.05-0.1 pfu/cell. The assays were performed in either growth media or in the same media with 50% fetal bovine serum. Primer-probe set was Thermo Fisher Assay ID=AIFATFK. HSV-1: Strain F was assayed in Vero or MRCS cells and was used at 0.0005-0.004 pfu/cell in growth medium. Primer-probe set was Thermo Fisher Assay ID=AIBJZIB. HSV-2: Strain G was assayed in Vero or MRCS cells and was used at 0.004-0.4 pfu/cell in growth medium. Primer-probe set was Thermo Fisher Assay ID=AICSXOJ.

[4] = tested on: HSV-1 Strain F in Vero or MRCS cells; experiment: Viral qPCR assay, HSV-1; type: cell-based; conditions: read-out: HSV1 Cell (EC50), values marked *
Description: as §3, §4

[5] = tested on: HSV-2 Strain G in Vero or MRCS cells; experiment: Viral qPCR assay, HSV-2; type: cell-based; conditions: read-out: HSV2 Cell (EC50), values marked *
Description: as §3, §4

[6] = Human betaherpesvirus 5, AD169, MRC5, footnote b: assay described in Example 25, read-out: CMV Cell^b (EC50)
[7] = Human alphaherpesvirus 1, starred values: viral qPCR assay of Example 26, ~72 hours, Vero or MRCS cells
[8] = Human alphaherpesvirus 2, starred values: viral qPCR assay of Example 26, ~72 hours, Vero or MRCS cells

IC50 ([1]; read-out: CMV^a (IC50)) | IC50 ([2]; read-out: VZV^a (IC50)) | SMILES | IC50 ([1]; CMV^a (IC50)) | IC50 ([2]; VZV^a (IC50)) | EC50 ([3]; Human betaherpesvirus 5, AD169, MRC5, read-out: CMV Cell^b (EC50), footnote b: assay described in Example 25) | EC50 ([4]; Human alphaherpesvirus 1, Vero, 72 h) | EC50 ([5]; Human alphaherpesvirus 2, Vero, 72 h) | EC50 [3, 6] | EC50 [4, 7] | EC50 [5, 8]
– | – | NCCn1nc(C(=O)NCc2ccc(Cl)cc2)c2ccc(NCc3cnns3)c(Cl)c21 [Compound 3] | 0.0096 µM | 0.0029 µM | 0.071 µM | 0.085 µM | 0.17 µM | – | – | –
0.15 µM | 0.014 µM | Cn1nc(C(=O)NCc2ccc(Cl)cc2)c2c3c(ccc21)C(N1CCOCC1)CC3 (centres unmarked) [Compound 17] | – | – | – | – | – | 1 µM | 0.31 µM | 0.35 µM
0.078 µM | 0.035 µM | Cn1nc(C(=O)NCc2ccc(Cl)cc2)c2cc(C[C@H]3COC(=O)N3)ccc21 [Compound 33] | – | – | – | – | – | 0.16 µM | 0.2 µM | 0.11 µM
0.067 µM | 0.024 µM | Cn1nc(C(=O)NCc2ccc(Cl)cc2)c2cc(C[C@H]3CCC(=O)N3)ccc21 [Compound 34] | – | – | – | – | – | 0.33 µM | 0.22 µM | 0.24 µM
